For 29 molecules, MIC results are on record in ChEMBL document CHEMBL3608226, “Synthesis and biological evaluation of phaitanthrin congeners as anti-mycobacterial agents” (2015).

SMILES strings stand for the structures. Converted amounts (≈) assume the structure as drawn.

What all share (assay type): functional
In assay [1] the test system is Mycobacterium tuberculosis. The assay can be described thus: Antimycobacterial activity against Mycobacterium tuberculosis H37Rv ATCC 27294 after 28 days by agar dilution method. Conditions: H37Rv ATCC 27294, 672 h. Background: In agar dilution, organisms are placed on agar that contains the substance at set levels.
For the next assay, the system named is Mycobacterium avium. The assay can be described thus: Antimycobacterial activity against Mycobacterium avium.
The subject of assay [2] is Mycobacterium tuberculosis. Put plainly: Antimycobacterial activity against Mycobacterium tuberculosis H37Rv.
In assay [3] the test system is Mycolicibacterium smegmatis. The assay can be described thus: Antimycobacterial activity against Mycobacterium smegmatis.

For `CC[C@@H](CO)NCCN[C@@H](CC)CO` [ETHAMBUTOL], the MIC in assay [1] came to 15.3 µM (≈ 3.13 µg/mL).
Consider `O=C1c2ccccc2-n2c1nc1ccccc1c2=O` [TRYPTANTHRIN], for which the MIC was 4 µg/mL (≈ 16.1 µM) with Mycobacterium avium, 1 µg/mL (≈ 4.03 µM) in assay [2] and 6 µg/mL (≈ 24.2 µM) in assay [3].
With `N#Cc1ccc(-c2[nH]c3ccccc3c2-c2c3ccccc3n3c(=O)c4ccccc4[nH]c23)cc1`, in assay [1], the MIC turned out to be 7.06 µM (≈ 3.18 µg/mL).
Molecule `Nc1ccc(C(=O)CC2(O)c3ccccc3-n3c2nc2ccccc2c3=O)cc1` (racemic) showed a minimal inhibitory concentration (MIC) in assay [1] of 16.3 µM (≈ 6.26 µg/mL).
In assay [1], `O=C(CC1(O)c2ccccc2-n2c1nc1ccccc1c2=O)c1ccc(F)cc1` (racemic) came in with an MIC of 8.85 µM (≈ 3.42 µg/mL).
Still for that read-out and setting: the figure for `Nc1ccccc1C(=O)CC1(O)c2ccccc2-c2nc3ccccc3nc21` (racemic) is 17 µM (≈ 6.25 µg/mL); for `O=c1c2ccccc2[nH]c2c(-c3c(-c4cccs4)[nH]c4ccccc34)c3ccccc3n12` it is 7.3 µM (≈ 3.15 µg/mL).
Still for that read-out and setting: the figure for `O=c1c2ccccc2[nH]c2c(-c3c(-c4ccccc4)[nH]c4ccccc34)c3ccccc3n12` is 8.58 µM (≈ 3.65 µg/mL); for `Nc1ccc(C2=NN(c3ccccc3)C3(C2)c2ccccc2-c2nc4ccccc4nc23)cc1` (racemic) it is 7.17 µM (≈ 3.15 µg/mL).
The same measure, in the same setting: the figure for `O=C(CC1(O)c2ccccc2-n2c1nc1ccccc1c2=O)c1ccccc1NC(=S)Nc1ccc([N+](=O)[O-])cc1` (racemic) is 5.98 µM (≈ 3.37 µg/mL); for `O=C(CC1(O)c2ccccc2-n2c1nc1ccccc1c2=O)c1cccs1` (racemic) it is 16.7 µM (≈ 6.25 µg/mL); for `O=C(O)c1cn(C2CC2)c2cc(N3CCNCC3)c(F)cc2c1=O` [CIPROFLOXACIN] it is 12.6 µM (≈ 4.17 µg/mL).
In assay [1], `Nc1ccccc1-c1[nH]c2ccccc2c1-c1c2ccccc2n2c(=O)c3ccccc3[nH]c12` returned an MIC of 6.18 µM (≈ 2.72 µg/mL).
Regarding `CCc1ccc(C(=O)CC2(O)c3ccccc3-n3c2nc2ccccc2c3=O)cc1` (racemic), in assay [1], the MIC came out at 7.88 µM (≈ 3.12 µg/mL).
On the same count and under the same terms, the figure for `N#Cc1ccc(C(=O)CC2(O)c3ccccc3-n3c2nc2ccccc2c3=O)cc1` (racemic) is 15.9 µM (≈ 6.26 µg/mL); for `O=C(CC1(O)c2ccccc2-n2c1nc1ccccc1c2=O)c1ccc(Br)cc1` (racemic) it is 112 µM (≈ 50 µg/mL).
Same read-out and setting: the figure for `Nc1ccccc1C1=NN(c2ccccc2)C2(C1)c1ccccc1-c1nc3ccccc3nc12` (racemic) is 56.9 µM (≈ 25 µg/mL); for `Brc1ccc(C2=NN(c3ccccc3)C3(C2)c2ccccc2-c2nc4ccccc4nc23)cc1` (racemic) it is 12.4 µM (≈ 6.25 µg/mL); for `O=C(CC1(O)c2ccccc2-n2c1nc1ccccc1c2=O)c1ccccc1O` (racemic) it is 16.2 µM (≈ 6.24 µg/mL).
Still for that read-out and setting: as for `O=c1c2ccccc2[nH]c2c(-c3c(-c4ccccc4O)[nH]c4ccccc34)c3ccccc3n12`, the figure is 29.4 µM (≈ 13 µg/mL); as for `Nc1ccccc1C(=O)CC1(O)c2ccccc2-n2c1nc1ccccc1c2=O` (racemic), 3.99 µM (≈ 1.53 µg/mL).
Consider `Nc1ccc(C(=O)CC2(O)c3ccccc3-c3nc4ccccc4nc32)cc1` (racemic), for which the minimum inhibitory concentration (MIC) in assay [1] was determined as 8.45 µM (≈ 3.1 µg/mL).
Still for that read-out and setting: the figure for `CCc1ccc(-c2[nH]c3ccccc3c2-c2c3ccccc3n3c(=O)c4ccccc4[nH]c23)cc1` is 12.3 µM (≈ 5.59 µg/mL).
Same read-out and setting: as for `O=C(CC1(O)c2ccccc2-c2nc3ccccc3nc21)c1ccc(Br)cc1` (racemic), the figure is 14.4 µM (≈ 6.22 µg/mL); as for `Nc1ccc(-c2[nH]c3ccccc3c2-c2c3ccccc3n3c(=O)c4ccccc4[nH]c23)cc1`, 14.2 µM (≈ 6.24 µg/mL).
Still for that read-out and setting: as for `O=c1c2ccccc2[nH]c2c(-c3c(-c4ccc(F)cc4)[nH]c4ccccc34)c3ccccc3n12`, the figure is 27.7 µM (≈ 12.3 µg/mL).
In the case of `O=c1c2ccccc2[nH]c2c(-c3c(-c4ccc(Br)cc4)[nH]c4ccccc34)c3ccccc3n12`, it took 56.4 µM (≈ 28.5 µg/mL) to inhibit growth in assay [1] (MIC).
`O=C(CC1(O)c2cccc(Br)c2-n2c1nc1ccccc1c2=O)c1ccc(Br)cc1` (racemic) yielded a minimal inhibitory concentration (MIC) in assay [1] of 11.9 µM (≈ 6.24 µg/mL).
Same read-out and setting: as for `O=C(CC1(O)c2ccccc2-n2c1nc1ccccc1c2=O)c1ccccc1` (racemic), the figure is 16.9 µM (≈ 6.23 µg/mL).

In general, MIC refers to the smallest concentration in the dilution series that meets the test's criterion for growth inhibition. High values mean weaker potency, low ones greater potency.
